Data reported in US9169199B2, “Cycloalkyl guanidine F1F0-ATPase inhibitors and therapeutic uses thereof” (Lycera Corporation, priority 2010, dated 2015).

Key:
[1] = tested on: Ramos cells; assay: Cytotoxicity in Ramos cells; assay type: cell-based; details: Homo sapiens, read-out: Ramos cell EC50
Experimental: (§1) Compounds in Example 4 above were tested for activity against F1F0-ATPase by measuring ATP synthesis. In addition, the compounds were assessed for cytotoxicity in Ramos cells. Inhibition of ATP synthesis by the F1F0-ATPase and cytotoxicity in Ramos cells were measured according to the procedures described in K. M. Johnson et al. Chemistry & Biology 2005, 12, 485-496.

[2] = target: T1, F1F0-ATPase (Bos taurus, UniProt P13621); assay: Inhibition of ATP synthesis by the F1F0-ATPase; assay type: biochemical
T1 construct: from tissue
Experimental: as §1

| IC50 [2] | Structure (SMILES) | EC50 [1] |
| --- | --- | --- |
| < 10 µM | O=C(/N=C(/Nc1cccc(Cl)c1)N[C@H]1CC[C@H](O)CC1)c1ccc(C(F)(F)F)cc1 [Compound 8] | < 10 µM |
| < 10 µM | CCOC(=O)N[C@H]1CC[C@H](N/C(=N\C(=O)c2ccc(F)c(F)c2)NCc2ccc(F)cc2F)CC1 [Compound 58] | < 10 µM |
| > 10 µM | CCOC(=O)NC1CCC(N/C(=N\C(=O)c2ccc(F)c(S(C)(=O)=O)c2)NCc2ccc(F)cc2Cl)CC1 (centres unmarked) [Compound 145] | > 10 µM |
| < 10 µM | O=C(/N=C(/Nc1ccccc1C1CC1)N[C@H]1CC[C@H](O)CC1)c1ccc(C(F)(F)F)cc1 [Compound 21] | < 10 µM |
| < 10 µM | CCOC(=O)N[C@H]1CCC[C@@H](N/C(=N\C(=O)c2ccc(F)c(F)c2)Nc2cc(F)cc(Cl)c2)C1 [Compound 125] | < 10 µM |
| < 10 µM | CCOC(=O)N[C@H]1CC[C@H](N/C(=N\C(=O)c2ccc(F)c(F)c2)Nc2cccc(Cl)c2F)CC1 [Compound 82] | < 10 µM |
| < 10 µM | CCOC(=O)N[C@H]1CC[C@H](N/C(=N\C(=O)c2ccc(F)c(F)c2)NCc2ccc(Cl)c(F)c2)CC1 [Compound 62] | < 10 µM |
| < 10 µM | COC(=O)NC1CCC(N/C(=N\C(=O)c2ccc(Cl)cc2)Nc2cc(F)cc(Cl)c2)CC1 (centres unmarked) [Compound 166] | < 10 µM |
| < 10 µM | O=C(/N=C(/Nc1cc(F)cc(Cl)c1)N[C@H]1CC[C@H](NC(=O)C(F)(F)F)CC1)c1ccc(F)c(F)c1 [Compound 130] | < 10 µM |
| < 10 µM | CCOC(=O)N[C@H]1CC[C@H](N/C(=N\C(=O)c2ccc(F)c(F)c2)NCc2cccc(C(F)(F)F)c2)CC1 [Compound 51] | < 10 µM |
| < 10 µM | O=C(/N=C(/Nc1ccccc1C1CC1)N[C@H]1CC[C@H](Nc2ncccn2)CC1)c1ccc(F)c(F)c1 [Compound 67] | > 10 µM |
| < 10 µM | O=C(/N=C(/Nc1ccc(F)c(Cl)c1)N[C@H]1CC[C@H](Nc2ncccn2)CC1)c1ccc(F)c(F)c1 [Compound 83] | < 10 µM |
| < 10 µM | O=C(/N=C(/Nc1cc(F)cc(Cl)c1)N[C@H]1CC[C@H](NC(=O)C2CC2)CC1)c1ccc(F)c(F)c1 [Compound 101] | < 10 µM |
| < 10 µM | CCOC(=O)N[C@H]1CC[C@H](N/C(=N\C(=O)c2ccc(F)c(F)c2)NCc2ccc(C(F)(F)F)cc2)CC1 [Compound 52] | < 10 µM |
| < 10 µM | CCOC(=O)N[C@H]1CC[C@H](N/C(=N\C(=O)c2ccc(F)c(F)c2)Nc2ccccc2C2CC2)CC1 [Compound 66] | < 10 µM |
| < 10 µM | O=C(/N=C(/Nc1cccc(C(F)(F)F)c1)N[C@H]1CC[C@H](O)CC1)c1ccc(Cl)cc1 [Compound 29] | < 10 µM |

| IC50 [2] | Structure (SMILES) | EC50 [1] |
| --- | --- | --- |
| > 10 µM | O=C(/N=C(/NCc1ccc(F)cc1Cl)N[C@H]1CC[C@H](O)CC1)c1ccc(F)c(F)c1 [Compound 43] | > 10 µM |
| < 10 µM | O=C(/N=C(/Nc1cc(F)cc(Cl)c1)N[C@H]1CCCC[C@H]1O)c1ccc(F)c(F)c1 [Compound 128] | < 10 µM |
| < 10 µM | O=C(/N=C(\Nc1cccc(C(F)(F)F)c1)N[C@H]1CC[C@H](O)CC1)c1ccc(C(F)(F)F)cc1 [Compound 2] | < 10 µM |
| < 10 µM | O=C(/N=C(/NCc1ccc(Cl)c(F)c1)N[C@H]1CC[C@H](Nc2ncccn2)CC1)c1ccc(F)c(F)c1 [Compound 75] | < 10 µM |
| < 10 µM | CCOC(=O)NC1CCC(N/C(=N\C(=O)c2ccc(OC)cc2)Nc2cc(F)cc(Cl)c2)CC1 (centres unmarked) [Compound 152] | < 10 µM |
| < 10 µM | CCOC(=O)NC1CCC(N/C(=N\C(=O)c2cccc(OC)c2)Nc2cc(F)cc(Cl)c2)CC1 (centres unmarked) [Compound 155] | < 10 µM |
| < 10 µM | CCOC(=O)N[C@H]1CC[C@H](N/C(=N\C(=O)c2ccc(F)c(F)c2)NCc2ccc(Cl)cc2F)CC1 [Compound 63] | < 10 µM |
| < 10 µM | CC1(N/C(=N/C(=O)c2ccc(C(F)(F)F)cc2)N[C@H]2CC[C@H](Nc3ncccn3)CC2)CCCC1 [Compound 121] | < 10 µM |
| < 10 µM | O=C(/N=C(/Nc1cc(F)cc(Cl)c1)N[C@H]1CC[C@H](Nc2ncccn2)CC1)c1ccc(F)c(F)c1 [Compound 9] | < 10 µM |
| > 10 µM | O=C(/N=C(/NCc1cccc(F)c1)N[C@H]1CC[C@H](O)CC1)c1ccc(F)c(F)c1 [Compound 36] | > 10 µM |
| > 10 µM | O=C(/N=C(/Nc1ccccc1C1CC1)N[C@H]1CC[C@H](O)CC1)c1ccc(F)c(F)c1 [Compound 23] | > 10 µM |
| < 10 µM | CC(C)(C)CN/C(=N/C(=O)c1ccc(Cl)c(F)c1)N[C@H]1CC[C@H](Nc2ncccn2)CC1 [Compound 144] | < 10 µM |
| < 10 µM | O=C(/N=C(/NCc1ccccc1Cl)N[C@H]1CC[C@H](Nc2ncccn2)CC1)c1ccc(F)c(F)c1 [Compound 90] | < 10 µM |
| > 10 µM | O=C(/N=C(/NCc1cccc(C(F)(F)F)c1)N[C@H]1CC[C@H](O)CC1)c1ccc(F)c(F)c1 [Compound 33] | < 10 µM |
| < 10 µM | O=C(/N=C(/Nc1cc(F)cc(Cl)c1)N[C@H]1CC[C@H](NC(=O)N2CCOCC2)CC1)c1ccc(F)c(F)c1 [Compound 136] | < 10 µM |

The remaining lines, values behind:

| Structure (SMILES) | IC50 [2] | EC50 [1] |
| --- | --- | --- |
| CN(C)C(=O)N[C@H]1CC[C@H](N/C(=N\C(=O)c2ccc(F)c(F)c2)Nc2cc(F)cc(Cl)c2)CC1 [Compound 135] | < 10 µM | < 10 µM |
| O=C(/N=C(/Nc1cccc(C(F)(F)F)c1)N[C@H]1CC[C@H](O)CC1)c1ccc(F)c(F)c1 [Compound 4] | < 10 µM | < 10 µM |
| O=C(/N=C(/Nc1cc(F)cc(Cl)c1)N[C@H]1CC[C@H](NC(=O)N2CCCC2)CC1)c1ccc(F)c(F)c1 [Compound 137] | < 10 µM | < 10 µM |
| N[C@H]1CC[C@H](N/C(=N\C(=O)c2ccc(F)c(F)c2)Nc2cccc(Cl)c2)CC1 [Compound 79] | > 10 µM | < 10 µM |
| CCOC(=O)N[C@H]1CC[C@H](N/C(=N\C(=O)c2ccc(F)c(F)c2)NC2CCC(F)(F)CC2)CC1 [Compound 95] | < 10 µM | > 10 µM |
| O=C(/N=C(/Nc1ccccc1C1CC1)N[C@H]1CC[C@H](O)CC1)c1ccc(Cl)cc1 [Compound 22] | > 10 µM | > 10 µM |
| O=C(/N=C(/Nc1cc(F)cc(Cl)c1)NC1CCC(NC(=O)N2CCCC2)CC1)c1ccc(Cl)cc1 (centres unmarked) [Compound 163] | < 10 µM | < 10 µM |
| CCOC(=O)NC1CCC(N/C(=N\C(=O)c2ccc(C)cc2)Nc2cc(F)cc(Cl)c2)CC1 (centres unmarked) [Compound 158] | < 10 µM | < 10 µM |
| O=C(/N=C(/Nc1cc(F)cc(Cl)c1)N[C@H]1CC[C@H](NC(=O)c2cccs2)CC1)c1ccc(F)c(F)c1 [Compound 139] | < 10 µM | < 10 µM |
| CCOC(=O)N[C@H]1CC[C@H](N/C(=N\C(=O)c2ccc(F)c(F)c2)Nc2cc(C(C)(C)C)on2)CC1 [Compound 80] | > 10 µM | > 10 µM |
| O=C(/N=C(/NCc1ccc(F)cc1)N[C@H]1CC[C@H](O)CC1)c1ccc(F)c(F)c1 [Compound 37] | > 10 µM | > 10 µM |
| CCOC(=O)N[C@H]1CC[C@H](N/C(=N\C(=O)c2ccc(F)c(F)c2)NCC(F)(F)F)CC1 [Compound 107] | > 10 µM | > 10 µM |
| O=C(/N=C(/NCc1ccc(Cl)cc1)N[C@H]1CC[C@H](O)CC1)c1ccc(F)c(F)c1 [Compound 31] | > 10 µM | > 10 µM |
| CC1CCC(N/C(=N/C(=O)c2ccc(F)c(F)c2)N[C@H]2CC[C@H](Nc3ncccn3)CC2)CC1 (some centres unmarked) [Compound 86] | < 10 µM | < 10 µM |
| CCOC(=O)N[C@H]1CC[C@H](N/C(=N\C(=O)c2ccc(F)c(F)c2)NC(C)(C)C)CC1 [Compound 103] | > 10 µM | > 10 µM |
| O=C(/N=C(/Nc1cc(F)cc(Cl)c1)N[C@H]1CC[C@H](Nc2ncccn2)CC1)c1ccc(C(F)(F)F)cc1 [Compound 115] | < 10 µM | < 10 µM |
| COc1ccc(C(=O)/N=C(/Nc2cc(F)cc(Cl)c2)NC2CCC(NC(=O)c3ccccc3)CC2)cc1 (centres unmarked) [Compound 154] | < 10 µM | < 10 µM |
| O=C(/N=C(/Nc1cc(F)cc(Cl)c1)NC1CCC(NC(=O)c2nccs2)CC1)c1ccc(F)c(F)c1 (centres unmarked) [Compound 168] | < 10 µM | < 10 µM |
| O=C(/N=C(/NCc1ccccc1F)N[C@H]1CC[C@H](O)CC1)c1ccc(F)c(F)c1 [Compound 35] | > 10 µM | > 10 µM |
| O=C(/N=C(/Nc1cccc(C(F)(F)F)c1)N[C@H]1CC[C@H](O)CC1)c1cccc(Cl)c1 [Compound 24] | < 10 µM | < 10 µM |
| CC1(N/C(=N/C(=O)c2ccc(Cl)cc2)N[C@H]2CC[C@H](Nc3ncccn3)CC2)CCCC1 [Compound 122] | < 10 µM | < 10 µM |
| O=C(/N=C(/NCc1ccc(Cl)cc1)N[C@H]1CC[C@H](Nc2ncccn2)CC1)c1ccc(F)c(F)c1 [Compound 91] | < 10 µM | < 10 µM |
| CS(=O)(=O)N[C@H]1CC[C@H](N/C(=N\C(=O)c2ccc(F)c(F)c2)Nc2cccc(C(F)(F)F)c2)CC1 [Compound 3] | < 10 µM | < 10 µM |
| CCOC(=O)N[C@H]1CC[C@H](N/C(=N\C(=O)c2ccc(F)c(F)c2)NCc2cccc(Cl)c2)CC1 [Compound 48] | < 10 µM | < 10 µM |
| CCOC(=O)N[C@H]1CC[C@H](N/C(=N\C(=O)c2ccc(F)c(F)c2)NC2(C)CCC2)CC1 [Compound 106] | > 10 µM | > 10 µM |
| O=C(/N=C(/NCc1ccc(F)c(F)c1)N[C@H]1CC[C@H](O)CC1)c1ccc(F)c(F)c1 [Compound 39] | > 10 µM | < 10 µM |
| O=C(/N=C(/NCc1cccc(C(F)(F)F)c1)N[C@H]1CC[C@H](Nc2ncccn2)CC1)c1ccc(F)c(F)c1 [Compound 93] | < 10 µM | < 10 µM |
